Experimental findings from ChEMBL document CHEMBL6134875, “Farnesyl Transferase Inhibitors as a Novel Strategy for Targeting KRAS-Dependent Cancers” (2025) are described below.

What all share (format): functional
Test [1] has as its system NCI-H2122. Nature of the test: Antitumor activity against human NCI-H2122 cells harboring KRAS […] mutant xenografted in BALB/c nude mouse assessed as tumor volume at 100 mg/kg, po administered once daily and measured on day 27 (reference value: 1559.54 +/- 225.48 mm3). Conditions: time 27 day.
Test [2] has as its system NCI-H2122. Nature of the test: Antitumor activity against human NCI-H2122 cells harboring KRAS […] mutant xenografted in BALB/c nude mouse assessed as T/C ratio at 60 mg/kg, po administered once daily and measured on day 27 in presence of adagrasib relative to control. The following applies: time 27 day. (In xenograft studies the graft and the host belong to different species.)

The subject of test [3] is NCI-H2122. Nature of the test: Antitumor activity against human NCI-H2122 cells harboring KRAS […] mutant xenografted in BALB/c nude mouse assessed as tumor growth inhibition at 100 mg/kg, po administered once daily and measured on day 27. The following applies: NCI-H2122, 648 h, time 27 day, read-out: TGI.
In test [4] the test system is NCI-H2122. The experiment in a line: Antitumor activity against human NCI-H2122 cells harboring KRAS […] mutant xenografted in BALB/c nude mouse assessed as T/C ratio at 100 mg/kg, po administered once daily and measured on day 27 relative to control. The following applies: time 27 day.
The subject of test [5] is NCI-H2122. Nature of the test: Antitumor activity against human NCI-H2122 cells harboring KRAS […] mutant xenografted in BALB/c nude mouse assessed as T/C ratio at 15 mg/kg, po administered twice daily and measured on day 27 relative to control. The following applies: time 27 day.
The subject of test [6] is NCI-H2122. Nature of the test: Antitumor activity against human NCI-H2122 cells harboring KRAS […] mutant xenografted in BALB/c nude mouse assessed as tumor growth inhibition at 15 mg/kg, po administered once daily and measured on day 27 in presence of adagrasib. The following applies: NCI-H2122, 648 h, time 27 day, read-out: TGI.
The subject of test [7] is NCI-H2122. The experiment in a line: Antitumor activity against human NCI-H2122 cells harboring KRAS […] mutant xenografted in BALB/c nude mouse assessed as tumor growth inhibition at 15 mg/kg, po administered twice daily and measured on day 27. Conditions: NCI-H2122, 648 h, time 27 day, read-out: TGI.
In test [8] the test system is NCI-H2122. The experiment in a line: Antitumor activity against human NCI-H2122 cells harboring KRAS […] mutant xenografted in BALB/c nude mouse assessed as T/C ratio at 15 mg/kg, po administered once daily and measured on day 27 in presence of adagrasib relative to control. The following applies: time 27 day.
Test [9] has as its system NCI-H2122. Nature of the test: Antitumor activity against human NCI-H2122 cells harboring KRAS […] mutant xenografted in BALB/c nude mouse assessed as tumor volume at 15 mg/kg, po administered twice daily and measured on day 27 (reference value: 1559.54 +/- 225.48 mm3). The following applies: time 27 day.
Test [10] has as its system NCI-H2122. Nature of the test: Antitumor activity against human NCI-H2122 cells harboring KRAS […] mutant xenografted in BALB/c nude mouse assessed as tumor volume at 15 mg/kg, po administered once daily and measured on day 27 in presence of adagrasib (reference value: 1559.54 +/- 225.48 mm3). The following applies: time 27 day.
Test [11] relates to NCI-H2122. Nature of the test: Antitumor activity against human NCI-H2122 cells harboring KRAS […] mutant xenografted in BALB/c nude mouse assessed as tumor volume at 60 mg/kg, po administered twice daily and measured on day 27 (reference value: 1559.54 +/- 225.48 mm3). Conditions: time 27 day.
Test [12] relates to NCI-H2122. Nature of the test: Antitumor activity against human NCI-H2122 cells harboring KRAS […] mutant xenografted in BALB/c nude mouse assessed as tumor growth inhibition at 60 mg/kg, po administered once daily and measured on day 27 in presence of adagrasib. Conditions: NCI-H2122, 648 h, time 27 day, read-out: TGI.
The subject of test [13] is NCI-H2122. The experiment in a line: Antitumor activity against human NCI-H2122 cells harboring KRAS […] mutant xenografted in BALB/c nude mouse assessed as T/C ratio at 60 mg/kg, po administered once daily and measured on day 27 in presence of sotorasib relative to control. The following applies: time 27 day.
Test [14] relates to NCI-H2122. The experiment in a line: Antitumor activity against human NCI-H2122 cells harboring KRAS […] mutant xenografted in BALB/c nude mouse assessed as T/C ratio at 60 mg/kg, po administered twice daily and measured on day 27 relative to control. The following applies: time 27 day.
Test [15] relates to NCI-H2122. Nature of the test: Antitumor activity against human NCI-H2122 cells harboring KRAS […] mutant xenografted in BALB/c nude mouse assessed as tumor growth inhibition at 60 mg/kg, po administered twice daily and measured on day 27. The following applies: NCI-H2122, 648 h, time 27 day, read-out: TGI.
The subject of test [16] is NCI-H2122. The experiment in a line: Antitumor activity against human NCI-H2122 cells harboring KRAS […] mutant xenografted in BALB/c nude mouse assessed as tumor volume at 60 mg/kg, po administered once daily and measured on day 27 in presence of adagrasib (reference value: 1559.54 +/- 225.48 mm3). The following applies: time 27 day.
The test system of test [17] is NCI-H2122. Nature of the test: Antitumor activity against human NCI-H2122 cells harboring KRAS […] mutant xenografted in BALB/c nude mouse assessed as tumor volume at 60 mg/kg, po administered once daily and measured on day 27 in presence of sotorasib (reference value: 1559.54 +/- 225.48 mm3). The following applies: time 27 day.
Test [18] deals with NCI-H2122. Nature of the test: Antitumor activity against human NCI-H2122 cells harboring KRAS […] mutant xenografted in BALB/c nude mouse assessed as tumor growth inhibition at 60 mg/kg, po administered once daily and measured on day 27 in presence of sotorasib. Conditions: NCI-H2122, 648 h, time 27 day, read-out: TGI.

By T/C is commonly meant the ratio of treated to control.

Turning to `C=CC(=O)N1CCN(c2nc(=O)n(-c3c(C)ccnc3C(C)C)c3nc(-c4c(O)cccc4F)c(F)cc23)[C@@H](C)C1` [SOTORASIB], in the test with NCI-H2122 [1], the Activity was determined as 643.34 mm3. For the same compound, the T/C in the test on NCI-H2122 [2] came to 41.25%. The inhibition in vivo at 100 mg/kg with NCI-H2122 [3] came out at 58.8%.
`C=C(F)C(=O)N1CCN(c2nc(OC[C@@H]3CCCN3C)nc3c2CCN(c2cccc4cccc(Cl)c24)C3)C[C@@H]1CC#N` [ADAGRASIB]: the Activity with NCI-H2122 [1] worked out at 600.26 mm3. Besides, the inhibition in vivo at 100 mg/kg with NCI-H2122 [3] stood at 61.5%. Further, the T/C in the test with NCI-H2122 [4] stood at 38.49%.
Regarding `Cn1cncc1[C@@]1(N)c2ccc(C#N)c(c2)COc2cccc(c2)-c2cc(C#N)nc3ccc1cc23`, the results for the T/C with NCI-H2122 [5] and in the test on NCI-H2122 [8] were 68.13% and 12%, respectively. Further, the figures for the inhibition in vivo at 15 mg/kg with NCI-H2122 [6] and with NCI-H2122 [7] were 88% and 31.9%, respectively. In addition, the Activity came out at 1062.47 mm3 in the test with NCI-H2122 [9] and 187.07 mm3 in the test on NCI-H2122 [10].
As to `Cn1cncc1[C@@](N)(c1ccc(Cl)cc1)c1ccc2c(c1)c(-c1cccc(Cl)c1)cc(=O)n2C` [TIPIFARNIB], the Activity with NCI-H2122 [11] is 1000.38 mm3; with NCI-H2122 [16], 177.5 mm3; in the test on NCI-H2122 [17], 233.84 mm3. Besides, the T/C with NCI-H2122 [2] is reported as 11.38%; with NCI-H2122 [13] it was 14.99%; with NCI-H2122 [14] it was 64.15%. Further, the results for the inhibition in vivo at 60 mg/kg in the test on NCI-H2122 [12], in the test on NCI-H2122 [15] and in the test on NCI-H2122 [18] were 88.6%, 35.9% and 85%, respectively.
